From PubChem BioAssay (NCI)
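How tested: cells in 96-well plates exposed to compound for 48 hours at five concentrations. TGI: concentration producing complete growth inhibition.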

What was measured:
Test in all cases: NCI anticancer screen, dose series, 48 h
MDA-N = system: MDA-N
UO-31 renal = system: UO-31 renal
MDA-MB-435 = system: MDA-MB-435
HCC-2998 colon = system: HCC-2998 colon
MDA-MB-231 breast = system: MDA-MB-231 breast
K-562 leukemia = system: K-562 leukemia
SF-268 CNS = system: SF-268 CNS
UACC-257 melanoma = system: UACC-257 melanoma
SNB-19 CNS = system: SNB-19 CNS
SNB-75 CNS = system: SNB-75 CNS
CCRF-CEM leukemia = system: CCRF-CEM leukemia
A498 renal = system: A498 renal
NCI/ADR-RES ovarian = system: NCI/ADR-RES ovarian

| SMILES | TGI (MDA-N) | TGI (UO-31 renal) | TGI (MDA-MB-435) | TGI (HCC-2998 colon) | TGI (MDA-MB-231 breast) | TGI (K-562 leukemia) | TGI (SF-268 CNS) | TGI (UACC-257 melanoma) | TGI (SNB-19 CNS) | TGI (SNB-75 CNS) | TGI (CCRF-CEM leukemia) | TGI (A498 renal) | TGI (NCI/ADR-RES ovarian) |
| --- | --- | --- | --- | --- | --- | --- | --- | --- | --- | --- | --- | --- | --- |
| Nc1ncnc2c1ncn2CC(OCP(=O)(O)O)Oc1ccccc1 (configuration not stated) | > 100 µM | > 100 µM | > 100 µM | > 100 µM | > 100 µM | > 100 µM | > 100 µM | > 100 µM | > 100 µM | > 100 µM | > 100 µM | > 100 µM | > 100 µM |
| CC(=O)Oc1ccc(-c2cc3ccccc3oc2=O)cc1OC(C)=O | > 100 µM | > 100 µM | > 100 µM | 59.3 µM | > 100 µM | > 100 µM | > 100 µM | > 100 µM | > 100 µM | > 100 µM | > 100 µM | > 100 µM | > 100 µM |
| C=CCCCC1(C)CCCCNC1=O (configuration not stated) | > 10 µM | > 10 µM | > 10 µM | > 10 µM | > 10 µM | > 10 µM | > 10 µM | > 10 µM | > 10 µM | > 10 µM | > 10 µM | > 10 µM | > 10 µM |
| COc1cc(OC)c(/C=N/N=C(\N)NO)c(OC)c1 | > 100 µM | 81.2 µM | > 100 µM | > 100 µM | > 100 µM | > 100 µM | > 100 µM | > 100 µM | > 100 µM | 64.7 µM | > 100 µM | > 100 µM | > 100 µM |
